Experimental data as given in patent US10329532B2, “Method to direct differentiation of pluripotent stem cells into functional heart muscle” (GEORG-AUGUST-UNIVERSITÄT GÖTTINGEN STIFTUNG ÖFFENTLICHEN …, priority 2013, dated 2019).
“Also recorded” adds a separate entry of the source. Where two headings read alike, the source gives them in different places.

Columns and labels:
Type in all cases: cell-based, human
[1] = test system: HES2 hPSCs; experiment: 2D cardiac differentiation of hPSC (MESP1 qPCR day 3, α-actinin flow cytometry day 16, beating activity)
From the text: For this reason a cardiac differentiation protocol was firstly required which consistently produced cardiomyocytes and fibroblasts/stromal cells. The inventors optimized their cardiac differentiation protocol (FIG. 1a) for both yield and consistency, based on a previously published serum-free 2D hPSC differentiation protocol (Hudson et al. Stem Cells Dev 21, 1513-1523 (2012)). It was reasoned that robustness and efficiency could be enhanced if WNT activity was stabilized during the mesoderm induction phase. As surrogate marker for mesoderm induction MESP1 expression was analysed by qPCR on culture day 3; this was followed by flow cytometry for α-actinin (cardiomyocyte marker) at day 16, which were found correlated very well with the amount of beating activity.
Cardiac differentiation was optimized on the HES2 line. HES2 hPSCs were plated at 5×10^4 cells/cm^2 (1×10^5 cells/cm^2 for HES3 and hIPS lines) on 1:30 Matrigel/PBS coated-plates and cultured in 1:1 PSC-medium minus FGF-2 and HFF-conditioned medium (HFF-CM—harvested from 5 day confluent irradiated HFF cultures) with 10 ng/mL FGF2. For the hIPS line 10 μM Y-27632 was added to this medium. After 1 day the cells were rinsed with RPMI medium, then differentiated as indicated in each figure with 0.5 ml of medium in each well of a 24 well plate. The protocol details for each figure are outlined in FIG. 8.
(§1) Cells, BHMs or human heart biopsies were harvested and stored at −80° C. until RNA extraction using Trizol following manufacturer's instructions (Applied Biosystems). 1 μg of RNA was then treated with DNAse (Roche) followed by cDNA synthesis using a High Capacity cDNA Reverse Transcription Kit (Applied Biosystems). qPCR was performed using Fast SYBR Green Master Mix (Applied Biosystems) on a 384-well format AB7900 HT (Applied Biosystems). Gene expression was normalized using 2^−ΔCt or 2^−ΔΔCt using GAPDH as the housekeeping gene which we found to be consistently expressed between conditions in all of our experiments. Primer details are given in below Table 1.
(§2) Cells were stained either live or fixed using Histofix for 10 min at room temperature or ethanol. The cells were stained in 5% FBS in PBS (membrane blocking buffer) for cell surface markers (excluding TRA-1-60) and blocking buffer for internal markers. The cells were then stained with primary antibodies in blocking buffer for 45 min followed by secondary antibodies in blocking buffer and Hoechst for 30 min at 4° C. (Table 2). A BD LSRII was used for flow cytometry analysis (BD Biosystems). Live cells populations were gated based on forward-side scatter profiles; fixed cells populations were gated based on Hoechst staining. BD FACSDiva Software (BD Bioscience) or Cyflologic v1.2.1 (Cyflo Ltd) were used for analysis.

[2] = test system: bioengineered heart muscle (BHM); experiment: Isometric contraction measurements of BHM (twitch tension/force of contraction) in organ baths; details: for twitch tension/force of contraction: growth factor added during cardiac maturation (FGF2: 10 ng/mL, TGFb1: 1 ng/mL)
Method: Briefly, contraction experiments are performed in organ baths at 37° C. under constant bubbling with 5% CO2 and 95% O2 to maintain a physiological pH in Tyrode's solution containing (all in mM): 120 NaCl, 1 MgCl2, 0.2 CaCl2, 5.4 KCl, 22.6 NaHCO3, 4.2 NaH2PO4, 5.6 glucose and 0.56 ascorbate. Calcium is adjusted using a 0.2 M calcium chloride solution. All BHM are analysed at 3 Hz with 5 ms square pulses of 200 mA electrical current in order to pace at approximately the embryonic heart rate. Stimulation frequency is altered to confirm proper force-frequency response (Bowditch mechanism). BHM are mechanically stretched at intervals of 125 μm until the maximum twitch force is observed (force-length response; Frank-Starling mechanism).
Briefly, all contraction experiments are performed in organ baths at 37° C. and physiological pH in Tyrode's solution containing (all in mM): 120 NaCl, 1 MgCl2, 0.2 CaCl2, 5.4 KCl, 22.6 NaHCO3, 4.2 NaH2PO4, 5.6 glucose and 0.56 ascorbate. Calcium is adjusted using a 0.2 M calcium chloride solution. All BHM are analysed at 3 Hz with 5 ms square pulses of 200 mA electrical current in order to pace at approximately the embryonic heart rate. Stimulation frequency is altered to confirm proper force-frequency response (Bowditch mechanism). BHM are mechanically stretched at intervals of 125 μm until the maximum twitch force is observed at 2 mM calcium (Frank-Starling mechanism). Subsequently, BHM are subjected to different calcium concentrations (0.2, 0.4, 0.8, 1.2, 1.6, 2.0, 2.4 mM) and the twitch force is recorded. For isoprenaline experiments the calcium concentration is adjusted to 0.6 mM and subsequently the isoprenaline concentration is adjusted to 1 μM.
(§3) BHM formation was optimized on the HES2 line. HES2 hPSCs were suspended 1:1 in PSC-medium minus FGF-2 and HFF-conditioned medium (HFF-CM—harvested from 5 day confluent irradiated HFF cultures) with 10 ng/mL FGF2 and mixed with a collagen I hydrogel. For the HES3, and hIPS lines 10 μM Y-27632 was also added to the medium. The collagen I matrix was formulated with acid-soluabilized bovine collagen I (Devro) with an equi-volume of 2×DMEM (Gibco) and neutralized using 0.1 M sodium hydroxide. The hPSC/collagen I matrix was formulated to give a final collagen I concentration of 1 mg/ml and 5×10^5 hPSC per 170 μl. For the HES3 and hIPS lines 1×10^6 and 0.5×10^6 cells were used respectively per 170 μl. For each BHM, 170 μl of the hPSC/collagen I matrix was pipette into circular molds (i.d.=4 mm, o.d.=10 mm) fabricated using poly(dimethylsiloxane) (Sylgard, Dow Corning). After 10 min of culture in the incubator at 37° C. the collagen gelled and 1.25 ml of 1:1 human foreskin fibroblast-conditioned medium with 10 ng/ml FGF2 was added per BHM. The following day the BHMs were rinsed with RPMI medium and then differentiated as indicated in each figure, with 1.25 ml of medium per BHM. At day 13 the BHM were transferred onto mechanical stimulators as indicated. The protocol details for each figure are outlined in FIG. 8.
Contraction experiments were performed in organ baths at 37° C. and continuous bubbling with 5% CO2/95% O2 to maintain a physiological pH in Tyrode's solution containing (all in mM): 120 NaCl, 1 MgCl2, 0.2 CaCl2, 5.4 KCl, 22.6 NaHCO3, 4.2 NaH2PO4, 5.6 glucose and 0.56 ascorbate. Calcium was adjusted using a 0.2 M calcium chloride solution. All BHM were first analysed at 3 Hz with 5 ms square pulses of 200 mA in order to pace at approximately the embryonic heart rate. BHM were mechanically stretched at intervals of 125 μm until Lmax, i.e. the tissue length were maximum twitch tension/force of contraction was recorded in the presence of maximally inotropically active calcium concentrations (2 mmol/L; Frank-Starling mechanism). Subsequently, BHM were subjected to different calcium concentrations (0.2, 0.4, 0.8, 1.2, 1.6, 2.0, 2.4 mM) and the twitch force recorded. […]

[3] = test system: bioengineered heart muscle (BHM); experiment: qPCR gene expression in BHM; details: for pathological hypertrophy marker ANP expression / β-MHC/α-MHC expression ratio: growth factor added during cardiac maturation (FGF2: 10 ng/mL, TGFb1: 1 ng/mL)
Method: as §3, §1

[4] = test system: bioengineered heart muscle (BHM); experiment: Flow cytometry of disassociated BHM (cell composition, cardiomyocyte size, cell cycle, cell number); details: for cardiomyocyte size: growth factor added during cardiac maturation (FGF2: 10 ng/mL, TGFb1: 1 ng/mL)
Method: as §3
For the initial BHM digestion protocol, BHMs were disassociated in 0.025 mg/ml Liberase TM (Roche), 30 mM 2,3-butanedione monoxime at 37° C. for 60 min in PBS. To preserve cell surface markers, BHM was disassociated using the same protocol as for the 2D digestion.
as §2

[5] = calcium adjusted to 1.2 mM during cardiac maturation
[6] = ASC-2-P during the entire differentiation protocol, data not shown

Cc1c[nH]c(-c2cnc(NCCNc3ccc(C#N)cn3)nc2-c2ccc(Cl)cc2Cl)n1 [CHIR, CHIR99021, reference compound]
beating activity ([1]; CHIR alone or with the differentiation factors used in FIG. 1b,c): unable to induce any beating activity

[Ca+2] [calcium]
EC50 ([2]; 29-30 day old BHM (increased culture time), read-out: calcium EC50 (twitch tension)): 700 µM
EC50 ([2]; 22 day old BHM (previous data), read-out: calcium EC50 (twitch tension)): 200 µM
elastic modulus [2, 5]: increase
resting tension [2, 5]: increase in resting tension
twitch tension of the BHM ([2]; calcium adjusted to 1.2 mM during cardiac maturation (RPMI 0.42 mM)): greatly increased the twitch tension
EC50 ([2]; characteristic of the BHM obtained by the method, read-out: calcium EC50): > 200 µM
calcium handling proteins by qPCR (CASQ2, PLN, ATP2A2, RYR2) ([3]; calcium adjusted to 1.2 mM, data not shown): no changes in calcium handling proteins

c1cc(-c2cnn3cc(-c4ccc(OCCN5CCCCC5)cc4)cnc23)ccn1 [dorsomorphin, reference compound]
twitch tension/force of contraction, % of the control group ([2]; 2 μmol/L dorsomorphin with each medium exchange from day 6 onwards): 47%

CC(C)NCC(O)c1ccc(O)c(O)c1 (stereo not shown) [isoprenaline, reference compound]
inotropic response with extended culture ([2]; 1 μM isoprenaline, 29-30 day vs 22 day old BHM, paced at 0.6 mM calcium): increased inotropic response
inotropic response ([2]; 1 μM isoprenaline, paced conditions at 0.6 mM calcium): more than 40 μN

FGF2: growth factor FGF2 (Miltenyi Biotec)
twitch tension/force of contraction [2]: trend to decreased twitch tension
α-actinin ([1]; 5 ng/ml FGF2 during the first 3 days of differentiation, flow cytometry day 16): trend to increased α-actinin
MESP1 expression ([1]; 5 ng/ml FGF2 during the first 3 days of differentiation, qPCR day 3): trend to increased MESP1 expression
cardiomyocyte size [4]: increase in cardiomyocyte size
pathological hypertrophy marker ANP expression [3]: induced (variably) pathological hypertrophy marker ANP
β-MHC/α-MHC expression ratio [3]: did not change β-MHC/α-MHC expression ratio

L-ascorbic acid 2 phosphate sesquimagnesium salt hydrate [ASC-2-P, reference compound]
BHM twitch tension/force of contraction ([2]; ASC-2-P supplemented during early BHM culture, days 0-13): significantly improved
cardiac differentiation efficiency in 2D protocol [1, 6]: without changes in cardiac differentiation efficiency
number of cells in 2D protocol [1, 6]: significantly increasing the number of cells
cardiomyocyte fraction ([4]; ASC-2-P supplemented days 0-13): trend to increased cardiomyocyte fraction
stromal cell fraction ([4]; ASC-2-P supplemented days 0-13): no change in the stromal cell fraction

TGFβ1: growth factor TGFβ1 (Peprotech)
twitch tension/force of contraction [2]: trend to increased twitch tension
contractile function of BHM (FOC: force of contraction) ([2]; increasing TGFβ-1 during cardiac maturation phase, 0.3-10 ng/ml tested): enhances contractile function of BHM; also recorded: enhancement of contractile function of BHM in a concentration dependent manner
cardiomyocyte size [4]: increase in cardiomyocyte size
pathological hypertrophy marker ANP expression [3]: decreased
β-MHC/α-MHC expression ratio [3]: more mature β-MHC/α-MHC expression ratio

B1: BMP4: growth factor BMP4 (R&D Systems) (protein, UniProt P12644 293-408, looked up)
Bone morphogenetic protein 4: SPKHHSQRARKKNKNCRRHSLYVDFSDVGWNDWIVAPPGYQAFYCHGDCPFPLADHLNSTNHAIVQTLVNSVNSSIPKACCVPTELSAISMLYLDEYDKVVLKNYQEMVVEGCGCR
BMP4 concentration giving optimal and consistent induction of MESP1 and α-actinin expression ([1]; BMP4 concentration varied whilst CHIR is present): 5 ng/mL
